Test results from patent US10159252B2, “Fungicidal compounds and compositions” (AgroFresh Inc., priority 2015, dated 2018).
Where a name gives a salt, the structure may show the parent alone.

Experiments:
Botrytis cinerea [1] = assay: In vivo volatile bioassay on inoculated fruit (strawberry, grape, blueberry); details: B. cinerea, 10 mg/L headspace, sublimed, 3 day treatment plus additional 3 days at 21° C.
Procedure: (§1) To assess the in vivo activity of volatile antimicrobial compound of Sample 1 (see Example 1) in fruit, a volatile bioassay is developed using apple, pear, orange, strawberry, grape and blueberry. Two apples, two oranges, two pears, eight strawberries, sixteen grapes or thirty blueberries (per rep, in duplicate) are placed in a clamshell with the stem end facing up for all fruits except for strawberry (stem end facing downwards). A fresh wound is inoculated with 20 μL 1×10^6 per mL Penicillium expansum (P. expansum) spore suspension (apple and pear), 20 μL×1×10^6 per mL Penicillium digitatum (P. digitatum) spore suspension (orange), and 20 μL×1×10^6 (strawberry and grape) or 10 μL (blueberry) of 1×10^5 per mL Botrytis cinerea (B. cinerea) spore suspension. The clamshells are placed inside a 117 L Rubbermaid storage box (Cat #2244), and the lids closed.
(§2) Sample 1, prepared according to Example 1 and dissolved in acetone, is pipetted onto a cotton strip, where the acetone is allowed to evaporate for 5 min, and then introduced into the container by a sublimation device (copper tube heated to 200° C. with fan flow at 0.5 liters per minute (L/min)) to achieve a final headspace concentration of 10 mg/L). The containers are then held for 3 d at 21° C. After treatment, the fruits are held for an additional 3 d at 21° C., then evaluated for disease incidence (millimeter (mm) diameter of browning or water-soaked lesions) and pathogen sporulation (mm diameter) for apple, pear and orange, as well as Botrytis cinerea disease incidence (%) and severity (0 to 4) for strawberry, grape and blueberry. Results are summarized in Table 2 showing good in vivo antimicrobial control of three fungal pathogens on six different hosts when applied as a volatile fungicide. Results are also depicted in FIG. 1.

Penicillium expansum [2] = assay: In vivo volatile bioassay on inoculated fruit (apple, pear); details: P. expansum, 10 mg/L headspace, sublimed, 3 day treatment plus additional 3 days at 21° C.
Procedure: as §1, §2

Botrytis cinerea [3] = assay: In vitro volatile inhibition assay, 12-well plate, half-strength PDA; assay type: cell-based; details: B. cinerea, 3 d at 23° C.; for percent growth relative to control: volatile
Procedure: (§3) A 12-well microtiter plate (6.5 milliliter (mL) volume per well) is used for the in vitro inhibition assay for volatile antimicrobial compound of Sample 1 (see Example 1) against two plant fungal pathogens. A 3-mL volume of half-strength Potato Dextrose Agar (PDA) is added to each well. After cooling, 1 microliter (μL) of 1×10^5 spores per mL of Botrytis cinerea (B. cinerea) or Penicillium expansum (P. expansum) suspension is spotted to the center of the agar. A Whatman #1 filter disk (Cat. No. 1001-0155) is placed, in duplicate, on the underside of a polyethylene polymerase chain reaction (PCR) plate sealing film.
(§4) For determination of the minimum inhibitory concentration (MIC), the test compound is diluted in acetone, and the appropriate amount of compound added to disks in a dose dependent manner to achieve a final headspace concentration of 35.7 to 0.03 milligrams per liter (mg/L). The acetone is permitted to evaporate for 5 min. The headspace around the inoculum is then sealed inside the well by the film with the adhering disk containing the fungicide. The plates are inverted, placed over the treated disks and sealed to prevent any of the chemical from flaking from the disk and falling onto the inoculated agar. After 3 days (d) of storage at 23° C., cultures are evaluated for percent growth relative to control. Results are summarized in Table 1 showing the ability of benzoxaborole compound of Sample 1 to control the growth of two fungal plant pathogens through volatile activity.

Penicillium expansum [4] = assay: as above; assay type: cell-based; details: P. expansum, 3 d at 23° C.; for percent growth relative to control: volatile
Procedure: as §3, §4

Penicillium digitatum = assay: In vivo volatile bioassay on inoculated fruit (orange); details: P. digitatum, 10 mg/L headspace, sublimed, 3 day treatment plus additional 3 days at 21° C.
Excerpt: To assess the in vivo activity of volatile antimicrobial compound of Sample 1 (see Example 1) in fruit, a volatile bioassay is developed using apple, pear, orange, strawberry, grape and blueberry. Two apples, two oranges, two pears, eight strawberries, sixteen grapes or thirty blueberries (per rep, in duplicate) are placed in a clamshell with the stem end facing up for all fruits except for strawberry (stem end facing downwards). […]
as §2, with “The containers are then held for 3 d at 21° C.” left out, “Results are summarized in Table 2 showing good in vivo antimicrobial control of three fungal pathogens on six different hosts when applied as a volatile fungicide. Results are also depicted in FIG. 1.” left out

[5] = headspace concentration 0.03 mg/L
[6] = headspace concentration 0.07 mg/L
[7] = headspace concentration 0.1 mg/L
[8] = headspace concentration 0.3 mg/L
[9] = headspace concentration 0.6 mg/L
[10] = headspace concentration 1.1 mg/L
[11] = headspace concentration 2.2 mg/L
[12] = headspace concentration 4.5 mg/L
[13] = headspace concentration 8.9 mg/L
[14] = headspace concentration 17.9 mg/L
[15] = headspace concentration 35.7 mg/L
[16] = Botrytis cinerea, 72 h, applied as a volatile fungicide, headspace concentration
[17] = Penicillium expansum, 72 h, applied as a volatile fungicide, headspace concentration

Fc1ccc2c(c1)CO[B-]2(F)F [Sample 1, potassium 1,1,5-trifluoro-1,3-dihydro-2,1-benzoxaborolate salt]
Incidence (%) (Botrytis cinerea [1]; Blueberry): 5.0%
Severity (0-4) (Botrytis cinerea [1]; Blueberry): 0.06
Incidence (%) (Botrytis cinerea [1]; Grape): 23.3%
Severity (0-4) (Botrytis cinerea [1]; Grape): 0.12
Incidence (%) (Botrytis cinerea [1]; Strawberry): 6.3%
Severity (0-4) (Botrytis cinerea [1]; Strawberry): 0.03
Browning (mm) (Penicillium expansum [2]; Apple): 4.8 mm
Sporulation (mm) (Penicillium expansum [2]; Apple): 7.3 mm
Browning (mm) (Penicillium expansum [2]; Pear): 5.3 mm
Sporulation (mm) (Penicillium expansum [2]; Pear): 4.3 mm
percent growth relative to control (Botrytis cinerea [3]; [5]): 0%
percent growth relative to control (Botrytis cinerea [3]; [6]): 0%
percent growth relative to control (Botrytis cinerea [3]; [7]): 0%
percent growth relative to control (Botrytis cinerea [3]; [8]): 0%
percent growth relative to control (Botrytis cinerea [3]; [9]): 64.8%
percent growth relative to control (Botrytis cinerea [3]; [10]): 100%
percent growth relative to control (Botrytis cinerea [3]; [11]): 100%
percent growth relative to control (Botrytis cinerea [3]; [12]): 100%
percent growth relative to control (Botrytis cinerea [3]; [13]): 100%
percent growth relative to control (Botrytis cinerea [3]; [14]): 100%
percent growth relative to control (Botrytis cinerea [3]; [15]): 100%
EC50 (Botrytis cinerea [3]; [16]): 0.5 µg/mL
MIC (Botrytis cinerea [3]; [16]): 1.1 µg/mL
percent growth relative to control (Penicillium expansum [4]; [5]): −2.7%
percent growth relative to control (Penicillium expansum [4]; [6]): −1.9%
percent growth relative to control (Penicillium expansum [4]; [7]): −3.3%
percent growth relative to control (Penicillium expansum [4]; [8]): −8.2%
percent growth relative to control (Penicillium expansum [4]; [9]): 12.9%
percent growth relative to control (Penicillium expansum [4]; [10]): 56.2%
percent growth relative to control (Penicillium expansum [4]; [11]): 73%
percent growth relative to control (Penicillium expansum [4]; [12]): 100%
percent growth relative to control (Penicillium expansum [4]; [13]): 100%
percent growth relative to control (Penicillium expansum [4]; [14]): 100%
percent growth relative to control (Penicillium expansum [4]; [15]): 100%
EC50 (Penicillium expansum [4]; [17]): 1.2 µg/mL
MIC (Penicillium expansum [4]; [17]): 4.5 µg/mL
Sporulation (mm) (Penicillium digitatum): 0.0 mm
Water soaked lesion (mm) (Penicillium digitatum): 12.7 mm
